Three compounds from patent US6143740A, “Heregulin antagonists and methods for their use” (Georgetown University, priority 1999, dated 2000) can be followed below.

One test deals with HRG receptor. The test can be described thus: Structure-activity relationship of rifamycin analogues as heregulin antagonists (FIGS. 6 and 7). Type of test: cell-based. As to conditions: substituent at C9 position. As to the method: Replacement of residues 177 and 178 by an acetyl group decreases the binding affinity of HRG to its receptor by more than 50-fold (Barbacci et al., J. Bio. Chem. 1995; 270(16)9585-9).
The structure-activity relationships of rifamycin analogues also indicates the importance of this region (FIGS. 6 and 7).
Inhibition of receptor binding--To investigate whether a compound can inhibit binding between HRG and its receptors, binding assays were performed using ^125 I labeled EGF domain of HRG-β1 (HED-β1). The binding affinity of iodine-labeled HED-β1 in T47D or MDA-453 cells was pre-determined. Unlabeled compounds were co-incubatedwith the radiolabeled ligand for 2 hours at 4° C., and the cells were washed 3 times with an ice-cold binding buffer. The labeled cells were lysed, and counted in a gamma-counter. Compounds that displaced more than 50% of labeled HED-β1 from the HRG-receptors were then re-examined in a dose-dependent manner.
(§1) The ability of compounds of the invention to block HRG-induced phosphorylation was tested by co-incubation with 10 nM HRG (maximal induction).

In test [1] the test system is EGF-mediated signaling pathway (MDA-468 cells). Put plainly: Specificity: incubation with EGF in EGFR overexpressing cell line MDA-468. Type of test: cell-based.
Test [2] relates to HRG-induced tyrosine phosphorylation (MDA-453 cells). Put plainly: Inhibition of HRG-induced phosphorylation, dose dependence in MDA-453 cells. Type of test: cell-based. As to conditions: 10 nM HRG. As for the experimental part:
as §1

In the next test the test system is 32D cells. The test can be described thus: IL-3 stimulated (HRG-independent) growth, 32D. Type of test: cell-based, murine. The text has this:
(§2) Inhibition of HRG-dependent cell proliferation--Since most human cancer cells express more than one of the erbB receptors and different heterodimerization might alter the binding affinity and/or internalization, it is difficult to define the exact correlation of the receptor expression and the antagonist activity of the small molecules. To overcome this difficulty, a 32D cell (murine, hematopoietic) model system, in which the 32D cells were transfected with erbB4 receptor, can be utilized. […] 32t cells transfected with erbB-4 will proliferate in the presence of either HRG or IL-3. With this 32D cell model system, compounds of the invention can be tested for their antagonist activity and specificity in both HRG-dependent and HRG-independent growth.

In test [3] the test system is 32D/erbB-4 cells. Put plainly: IL-3 stimulated (HRG-independent) growth, 32D/erbB-4. Type of test: cell-based, murine.
Description: as §2

For test [4], the system named is 32D/erbB-4 cells. The test can be described thus: HRG-dependent cell proliferation, 32D/erbB-4. It counts as cell-based, murine.
Description: as §2

For `COC1C=COC2(C)Oc3c(C)c(O)c4c(O)c(c(C=NN5CCCCCCCCCCCCCCCCC5)c(O)c4c3C2=O)NC(=O)C(C)=CC=CC(C)C(O)C(C)C(O)C(C)C(OC(C)=O)C1C` (stereo not drawn) [Compound A4], the “antagonist activity (structure-activity, FIGS. 6 and 7)” value in the test with HRG receptor was “fairly good activities”.

On to `COC1C=COC2(C)Oc3c(C)c(O)c4c(O)c(c(C=NN(C)C56CC7CC(CC(C7)C5)C6)c(O)c4c3C2=O)NC(=O)C(C)=CC=CC(C)C(O)C(C)C(O)C(C)C(OC(C)=O)C1C` (stereo not drawn) [Compound A3], for which the “effect on EGF-mediated signaling pathway” value in test [1] was “no or very little effect”. Besides, in test [2], the “inhibition of HRG-induced phosphorylation” value is reported as “dose-dependent inhibition”. The “antagonist activity (structure-activity, FIGS. 6 and 7)” value in the test with HRG receptor was “fairly good activities”.

Take `COC1C=COC2(C)Oc3c(C)c(O)c4c(O)c(c(C=NN5C(C)CN(Cc6cccc(O)c6)CC5C)c(O)c4c3C2=O)NC(=O)C(C)=CC=CC(C)C(O)C(C)C(O)C(C)C(OC(C)=O)C1C` (stereo not drawn) [Compound A1]: the “effect on EGF-mediated signaling pathway” value in test [1] was “no or very little effect”. For the same compound, the “inhibition of IL-3 stimulated growth” value in the test with 32D cells and with 32D/erbB-4 cells [3] was “not IL-3 stimulated growth” in each case. Also, the “inhibition of HRG-induced phosphorylation” value in test [2] is given as “dose-dependent inhibition”. For the same compound, the “HRG-dependent cell growth inhibition” value with 32D/erbB-4 cells [4] is given as “inhibit only the HRG-dependent cell growth”.
